Results reported in US8580965B2, “Substituted sulfonamide compounds” (Gruenenthal GmbH, priority 2006, dated 2013).

What was measured:
[1] = target: T1, human B1R receptor (bradykinin 1 receptor) (Homo sapiens, UniProt P46663); test: FLIPR Ca2+ assay (Fluo-4) on CHO K1 cells stably transfected with the human B1R gene; % activation and % inhibition at 10 μM; type: cell-based; conditions: CHO-K1, test substance 10 μM; CHO K1 hB1R cells; Ca2+ inflow after 0.5 nM Lys-Des-Arg9-bradykinin; read-out: B1R antagonism, human [10 μM] % inhibition
T1 construct: host or cells: CHO K1 cells (hB1R cells)
T1 sequence (P46663 1-353): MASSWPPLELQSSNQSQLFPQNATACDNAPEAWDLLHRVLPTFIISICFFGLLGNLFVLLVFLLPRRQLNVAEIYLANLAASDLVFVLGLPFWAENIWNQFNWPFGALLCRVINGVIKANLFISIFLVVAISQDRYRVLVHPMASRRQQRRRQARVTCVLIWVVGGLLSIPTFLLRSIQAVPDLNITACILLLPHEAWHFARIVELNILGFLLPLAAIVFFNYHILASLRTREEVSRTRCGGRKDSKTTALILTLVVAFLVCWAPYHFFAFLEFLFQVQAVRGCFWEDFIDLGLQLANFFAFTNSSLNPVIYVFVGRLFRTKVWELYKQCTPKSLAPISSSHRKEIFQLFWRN
Outline: (§1)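 CHO K1 cells stably expressing human or rat B1R, Fluo-4 loaded, read by FLIPR (peak fluorescence). Compound at 10 µM first gives % activation versus agonist; after 10 min, agonist (human: 0.5 nM Lys-Des-Arg9-bradykinin; rat: 100 nM Des-Arg9-bradykinin) gives % inhibition relative to maximal inhibition.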

[2] = target: T2, B1R receptor of the rat (bradykinin 1 receptor) (Rattus norvegicus, UniProt P97583); test: FLIPR Ca2+ assay (Fluo-4) on CHO K1 cells stably transfected with the B1R gene of the rat; % activation and % inhibition at 10 μM; type: cell-based; conditions: CHO-K1, test substance 10 μM; CHO K1 rB1R cells; Ca2+ inflow after 100 nM Des-Arg9-bradykinin; read-out: B1R antagonism, rat [10 μM] % inhibition
T2 construct: host or cells: CHO K1 cells (rB1R cells)
T2 sequence (P97583 1-337): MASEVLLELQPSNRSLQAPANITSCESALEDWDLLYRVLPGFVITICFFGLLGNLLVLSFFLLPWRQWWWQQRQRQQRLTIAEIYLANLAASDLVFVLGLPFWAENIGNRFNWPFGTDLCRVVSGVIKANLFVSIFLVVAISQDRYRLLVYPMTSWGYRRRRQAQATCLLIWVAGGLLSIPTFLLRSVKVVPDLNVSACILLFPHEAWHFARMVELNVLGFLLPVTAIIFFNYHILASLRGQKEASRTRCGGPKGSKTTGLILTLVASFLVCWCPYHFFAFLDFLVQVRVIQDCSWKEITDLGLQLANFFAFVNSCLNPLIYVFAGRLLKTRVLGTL
Outline: as §1

Row | Compound | inhibition at 10 µM [1] [%] | inhibition at 10 µM [2] [%]
1 | COc1cc(C)c(S(=O)(=O)N2CCC(COCC(=O)N3CCC(O)(c4cccs4)CC3)C2)c(C)c1 (stereo not shown) [Example 267, 1-(4-hydroxy-4-(thiophen-2-yl)piperidin-1-yl)-2-((1-(4-methoxy-2,6-dimethylphenylsulfonyl)pyrrolidin-3-yl)methoxy)ethanone] | 90.6 | 97.8
2 | COc1cc(C)c(S(=O)(=O)N(C)CCOCCC(=O)N2CCC(O)(c3cccnc3)CC2)c(C)c1 [Example 133, N-(2-(3-(4-hydroxy-4-(pyridin-3-yl)piperidin-1-yl)-3-oxopropoxy)ethyl)-4-methoxy-N,2,6-trimethylphenylsulfonamide] | 84.1 | 96.1
3 | COc1ccc(S(=O)(=O)N2CCCC2COCC(=O)N2CCC(O)(c3ccccn3)CC2)cc1 (stereo not shown) [Example 40, 1-(4′-hydroxy-3′,4′,5′,6′-tetrahydro-2′H-[2,4′]bipyridinyl-1′-yl)-2-[1-(4-methoxy-phenylsulfonyl)-pyrrolidin-2-ylmethoxy]-ethanone] | 1.84 | 61.3
4 | Cc1cc(Cl)cc(Cl)c1S(=O)(=O)N(C)CCOCC(=O)N1CCC(O)(c2ccccn2)CC1 [Example 198, 2,4-dichloro-N-(2-(2-(4-hydroxy-4-(pyridin-2-yl)piperidin-1-yl)-2-oxoethoxy)ethyl)-N,6-dimethylphenylsulfonamide] | 106 | 99.2
5 | O=C(COCC1CCCN1S(=O)(=O)c1c(Cl)cc(C(F)(F)F)cc1Cl)N1CCC(O)(c2cccc(C(F)(F)F)c2)CC1 (stereo not shown) [Example 170, 2-((1-(2,6-dichloro-4-(trifluoromethyl)phenylsulfonyl)pyrrolidin-2-yl)methoxy)-1-(4-hydroxy-4-(3-(trifluoromethyl)phenyl)piperidin-1-yl)ethanone] | 25.7 | 103
6 | O=C(COCC1Cc2ccccc2CN1S(=O)(=O)c1ccc(F)cc1)N1CCC(O)(Cc2ccccc2)CC1 (stereo not shown) [Example 75, 1-(4-benzyl-4-hydroxy-piperidin-1-yl)-2-[2-(4-fluoro-phenylsulfonyl)-1,2,3,4-tetrahydro-isoquinolin-3-ylmethoxy]-ethanone] | 11 | 19.2
7 | Cc1cc(C)c(S(=O)(=O)N2CCCCC2COCC(=O)N2CCC(O)(Cc3ccccc3)CC2)c(C)c1 (stereo not shown) [Example 67, 1-(4-benzyl-4-hydroxy-piperidin-1-yl)-2-[1-(2,4,6-trimethyl-phenylsulfonyl)-piperidin-2-ylmethoxy]-ethanone] | 55.4 | 86.5
8 | O=C(COCC1Cc2ccccc2CN1S(=O)(=O)c1ccc(Cl)c(Cl)c1)N1CCC(O)(c2cccnc2)CC1 (stereo not shown) [Example 91, 2-[2-(3,4-dichloro-phenylsulfonyl)-1,2,3,4-tetrahydro-isoquinolin-3-ylmethoxy]-1-(4′-hydroxy-3′,4′,5′,6′-tetrahydro-2′H-[3,4′]bipyridinyl-1′-yl)-ethanone] | 93.7 | 93.7
9 | COc1cc(C)c(S(=O)(=O)N2CCCC2COCC(=O)N2CCC(O)(c3ccc(Br)cc3)CC2)c(C)c1 (stereo not shown) [Example 214, 1-(4-(4-bromophenyl)-4-hydroxypiperidin-1-yl)-2-((1-(4-methoxy-2,6-dimethylphenylsulfonyl)pyrrolidin-2-yl)methoxy)ethanone] | 97.9 | 101
10 | O=C(COCC1Cc2ccccc2CN1S(=O)(=O)c1ccc(F)cc1)N1CCC(O)(c2ccccn2)CC1 (stereo not shown) [Example 72, 2-[2-(4-fluoro-phenylsulfonyl)-1,2,3,4-tetrahydro-isoquinolin-3-ylmethoxy]-1-(4′-hydroxy-3′,4′,5′,6′-tetrahydro-2′H-[2,4′]bipyridinyl-1′-yl)-ethanone] | 3.33 | 18.7
11 | CN(CCOCC(=O)N1CCC(O)(c2cccnc2)CC1)S(=O)(=O)c1c(Cl)cc(Cl)cc1Cl [Example 2, 2,4,6-trichloro-N-{2-[2-(4′-hydroxy-3′,4′,5′,6′-tetrahydro-2′H-[3,4′]bipyridinyl-1′-yl)-2-oxo-ethoxy]-ethyl}-N-methyl-phenylsulfonamide] | 104 | 103
12 | CN(CCOCC(=O)N1CCC(O)(Cc2ccccc2)CC1)S(=O)(=O)c1c(Cl)cc(Cl)cc1Cl [Example 9, N-{2-[2-(4-benzyl-4-hydroxy-piperidin-1-yl)-2-oxo-ethoxy]-ethyl}-2,4,6-trichloro-N-methyl-phenylsulfonamide] | 95.7 | 91.1
13 | O=C(COCC1CCCCN1S(=O)(=O)c1cccc2ccccc12)N1CCC(O)(c2ccc(Cl)cc2)CC1 (stereo not shown) [Example 63, 1-(4-(4-chlorophenyl)-4-hydroxypiperidin-1-yl)-2-((1-(naphthalen-1-ylsulfonyl)piperidin-2-yl)methoxy)ethanone] | 84.8 | 91.8
14 | CN(CCOCC(=O)N1CCC(O)(c2ccccn2)CC1)S(=O)(=O)c1ccc(Cl)s1 [Example 103, 5-chloro-thiophene-2-sulfonic acid {2-[2-(4′-hydroxy-3′,4′,5′,6′-tetrahydro-2′H-[2,4′]bipyridinyl-1′-yl)-2-oxo-ethoxy]-ethyl}-methyl-amide] | -9.25 | 19.3
15 | COc1ccc(S(=O)(=O)N2CCC(OCC(=O)N3CCC(O)(c4ccccn4)CC3)C2)cc1OC (stereo not shown) [Example 52, 2-[1-(3,4-dimethoxy-phenylsulfonyl)-pyrrolidin-3-yloxy]-1-(4′-hydroxy-3′,4′,5′,6′-tetrahydro-2′H-[2,4′]bipyridinyl-1′-yl)-ethanone] | -10 | 11.9
16 | O=C(COCC1CCCCN1S(=O)(=O)c1c(Cl)cccc1Cl)N1CCC(O)(c2ccc(Cl)c(C(F)(F)F)c2)CC1 (stereo not shown) [Example 236, 1-(4-(4-chloro-3-(trifluoromethyl)phenyl)-4-hydroxypiperidin-1-yl)-2-((1-(2,6-dichlorophenylsulfonyl)piperidin-2-yl)methoxy)ethanone] | 102 | 99.9

The next lines start with the values.

Row | inhibition at 10 µM [1] [%] | inhibition at 10 µM [2] [%] | Compound
17 | 93.6 | 95.3 | COc1cc(C)c(S(=O)(=O)N(C)CCOCC(=O)N2CCC(O)(c3ccc(Cl)cc3)CC2)c(C)c1 [Example 136, N-(2-(2-(4-(4-chlorophenyl)-4-hydroxypiperidin-1-yl)-2-oxoethoxy)ethyl)-4-methoxy-N,2,6-trimethylphenylsulfonamide]
18 | 75.5 | 71.9 | O=C(COC1CCN(S(=O)(=O)c2c(Cl)cc(Cl)cc2Cl)C1)N1CCC(O)(c2ccc(Cl)cc2)CC1 (stereo not shown) [Example 107, 1-(4-(4-chlorophenyl)-4-hydroxypiperidin-1-yl)-2-(1-(2,4,6-trichlorophenylsulfonyl)pyrrolidin-3-yloxy)ethanone]
19 | 13.3 | -0.12 | O=C(COCC1Cc2ccccc2CN1S(=O)(=O)c1ccccc1)N1CCC(O)(Cc2ccccc2)CC1 (stereo not shown) [Example 77, 2-(2-phenylsulfonyl-1,2,3,4-tetrahydro-isoquinolin-3-ylmethoxy)-1-(4-benzyl-4-hydroxy-piperidin-1-yl)-ethanone]
20 | 105 | 100 | COc1cc(C)c(S(=O)(=O)N(C)CCOCC(=O)N2CCC(O)(c3cccnc3)CC2)c(C)c1 [Example 143, N-(2-(2-(4-hydroxy-4-(pyridin-3-yl)piperidin-1-yl)-2-oxoethoxy)ethyl)-4-methoxy-N,2,6-trimethylphenylsulfonamide]
21 | 104 | 96.8 | COc1cc(C)c(S(=O)(=O)N2CCCCC2COCC(=O)N2CCC(O)(c3ccc(Br)cc3)CC2)c(C)c1 (stereo not shown) [Example 243, 1-(4-(4-bromophenyl)-4-hydroxypiperidin-1-yl)-2-((1-(4-methoxy-2,6-dimethylphenylsulfonyl)piperidin-2-yl)methoxy)ethanone]
22 | 20.9 | 70.3 | O=C(COCC1CCCCN1S(=O)(=O)c1ccc(C(F)(F)F)cc1)N1CCC(O)(c2ccc(Cl)cc2)CC1 (stereo not shown) [Example 156, 1-(4-(4-chlorophenyl)-4-hydroxypiperidin-1-yl)-2-((1-(4-(trifluoromethyl)phenylsulfonyl)piperidin-2-yl)methoxy)ethanone]
23 | 81.6 | 77.2 | Cc1cc(S(=O)(=O)N(C)CCOCC(=O)N2CCC(O)(c3ccccc3)CC2)c(C)cc1Cl [Example 152, 4-chloro-N-(2-(2-(4-hydroxy-4-phenylpiperidin-1-yl)-2-oxoethoxy)ethyl)-N,2,5-trimethylphenylsulfonamide]
